Data taken from PubChem BioAssay (NCI).
Several values for one entry are separate records, joined by “and”; a condition that tells them apart may be missing. Equal values may be shown once.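 How tested: cells in 96-well plates exposed to compound for 48 hours at five concentrations. GI50 marks 50% less growth. TGI marks complete inhibition of growth.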

Columns and labels:
Test in all cases: NCI anticancer screen, dose series, 48 h
NCI-H23 lung = system: NCI-H23 lung
OVCAR-3 ovarian = system: OVCAR-3 ovarian
RPMI-8226 leukemia = system: RPMI-8226 leukemia
SF-268 CNS = system: SF-268 CNS
SF-295 CNS = system: SF-295 CNS
SNB-75 CNS = system: SNB-75 CNS
DU-145 prostate = system: DU-145 prostate
HS 578T breast = system: HS 578T breast
MCF7 breast = system: MCF7 breast
T-47D breast = system: T-47D breast

Structure (SMILES) | TGI (NCI-H23 lung) [µM] | TGI (OVCAR-3 ovarian) [µM] | TGI (RPMI-8226 leukemia) [µM] | TGI (SF-268 CNS) [µM] | TGI (SF-295 CNS) [µM] | TGI (SNB-75 CNS) [µM] | GI50 (OVCAR-3 ovarian) [µM] | GI50 (RPMI-8226 leukemia) [µM] | GI50 (SF-268 CNS) [µM] | GI50 (SF-295 CNS) [µM] | GI50 (SNB-75 CNS) [µM] | TGI (DU-145 prostate) [µM] | TGI (HS 578T breast) [µM] | TGI (MCF7 breast) [µM] | TGI (T-47D breast) [µM] | GI50 (HS 578T breast) | GI50 (MCF7 breast) [µM] | GI50 (NCI-H23 lung) [µM] | GI50 (T-47D breast) [µM] | GI50 (DU-145 prostate) [µM]
COc1nc(NC2OC(COC(C)=O)C(OC(C)=O)C(OC(C)=O)C2OC(C)=O)c(N=CC=Nc2c(NC3OC(COC(C)=O)C(OC(C)=O)C(OC(C)=O)C3OC(C)=O)nc(OC)[nH]c2=O)c(=O)[nH]1 (stereo not given) | > 100 | > 100 | > 100 | > 100 | > 100 | > 100 | – | – | – | – | – | – | – | – | – | – | – | – | – | –
CN(C)CCC(N)(P(=O)([O-])[O-])P(=O)([O-])[O-].N.N.[Pt+2] | – | > 100 | > 100 | > 100 | > 100 | > 100 | > 100 | > 100 | > 100 | > 100 | > 100 | – | – | – | – | – | – | – | – | –
C=CC1(C)CCC2C(=CCC3C2(C)CC(O)C(O)C3(C)COC2OC(CO)C(O)C(O)C2O)C1 (stereo not given) | > 100 | – | – | > 100 | > 100 | > 100 | – | – | – | – | – | > 100 | > 100 | > 100 | > 100 | – | – | – | – | –
CC(C)=CCc1cc2c(cc1O)C1=C(C(=O)C3=C(NCCS3(=O)=O)C1=O)C(C=C(C)C)O2 (stereo not given) | > 16.7 | 10.1 | > 16.7 | > 16.7 | > 16.7 | > 16.7 | 2.13 | 5.56 | 4.13 | > 16.7 | 10.8 | – | > 16.7 | 7.84 | > 16.7 | 4.85 µM | 2.86 | 5.8 | 4.05 | –
C/C(=N/NC(=O)c1ccccc1S(N)(=O)=O)C(CN1CCCCC1)C(C1=C(O)C2C=CC=CC2OC1=O)c1ccccc1 (stereo not given) | > 100 | > 100 | 79 | > 100 | > 100 | > 100 | – | – | – | – | – | – | – | – | – | – | – | – | – | –
Cc1cc(N(CCC#N)CCC#N)ccc1/C=C(\NC(=O)/C=C/c1ccccc1)C(=O)N=[N+]=[N-] | > 100 | > 100 | > 100 | > 100 | > 100 | 62 | – | – | – | – | – | – | – | – | – | – | – | – | – | –
C/C(CN1C(=O)c2ccccc2C1=O)=N\NS(=O)(=O)c1ccc2ccccc2c1 | > 100 | > 100 | > 100 | > 100 | > 100 | > 100 | – | – | – | – | – | – | – | – | – | – | – | – | – | –
O=C(CCc1nnc2s/c(=C\c3ccc([N+](=O)[O-])cc3)c(=O)n12)Nc1ccc(Cl)c(Cl)c1 | 75.6 | 27 | 46.5 | 35.7 | 58.4 | 28 | – | – | – | – | – | – | – | – | – | – | – | – | – | –
NC(N)NCCCc1cn2c(n1)C1CCCN1C(=O)C2Cc1ccccc1 (stereo not given) | > 100 | > 100 | > 100 | > 100 | > 100 | > 100 | – | – | – | – | – | – | – | – | – | – | – | – | – | –
COc1ccc(-c2csc3c2-n2cccc2C3=O)cc1 | > 100 | 0.264 | – | > 100 | > 75.5 | 0.434 | – | 0.0259 | 0.0434 | 0.0476 | – | – | 0.095 | > 41.6 | – | 0.211 µM and 0.0224 µM | 0.0945 | – | – | 0.0601
COc1cccc2c1nc(C(F)F)n2-c1nc(-c2ccc(NS(=O)(=O)CCN(C)C)cc2)nc(N2CCOCC2)n1 | 23.3 | 3.13 | 2.41 | 13.3 | 1.44 | 0.282 | 0.105 | 0.272 | 0.157 | 0.0875 | 0.0246 | 11.7 | 0.5 | – | 0.0882 | 0.0664 µM | – | 0.206 | 0.0177 | 0.162
CC(C)(CN1CCCCC1)C(=O)/C=C/c1ccccc1 | 33.7 | 21.6 | 38.3 | 36.8 | 35.1 | 39.3 | – | – | – | – | – | – | – | – | – | – | – | – | – | –
C=CCC1(O)c2ccccc2C(=O)c2c(OCC(=O)OCC)ccc(OCC(=O)OCC)c21 (stereo not given) | > 100 | > 100 | > 100 | > 100 | > 100 | – | > 100 | 89 | > 100 | > 100 | – | > 100 | > 100 | > 100 | > 100 | > 100 µM | > 100 | > 100 | > 100 | > 100
O=C1C2C3CC4C5C3C1C5C1(SCCS1)C42 (stereo not given) | – | – | > 100 | > 100 | – | > 100 | – | – | – | – | – | – | – | – | – | – | – | – | – | –
CCN(CC)CC(=O)NC1c2ccccc2Oc2ccccc21 | > 100 | – | > 100 | > 100 | – | > 100 | – | – | – | – | – | – | – | – | – | – | – | – | – | –
C[C@@H]1C(=O)CC2C(C)(C)CCC[C@]2(C)[C@@]12CC[C@]1(C=COC1)O2 (stereo not given in full) | – | > 100 | – | > 100 | > 100 | – | – | – | – | – | – | – | – | – | – | – | – | – | – | –
CC(=O)/C(=C\c1ccc(Cl)cc1)c1ccccc1 | > 100 | 0.229 | 25.9 | > 100 | > 100 | > 100 | 0.0383 | 0.133 | 0.201 | 0.054 | 0.0691 | > 100 | > 100 | > 100 | – | 0.0832 µM | 0.0375 | 0.26 | – | 0.285
O=C(CCc1n[nH]c(=S)o1)Nc1cc(Cl)ccc1Cl | > 100 | > 100 | 46.3 | > 100 | > 100 | > 100 | – | – | – | – | – | – | – | – | – | – | – | – | – | –
Cn1ncnc1[C@@H]1c2n[nH]c(=O)c3cc(F)cc(c23)N[C@H]1c1ccc(F)cc1 | > 100 | > 100 | > 100 | > 100 | – | > 100 | > 100 | > 100 | > 100 | – | > 100 | > 100 | > 100 | > 100 | > 100 | > 100 µM | > 100 | > 100 | > 100 | > 100
O=c1nc2n(-c3cccc(Cl)c3)c3ccc([N+](=O)[O-])cc3cc-2c(=O)[nH]1 | 10.6 | 4.42 | 10.8 | 13.3 | 10.9 | > 25 | 1.08 | 3.13 | 3.56 | 4.92 | 11.7 | > 25 | – | – | > 25 | – | – | 4.94 | 7.82 | 6.73
